Measured values: patent US6737383B1, “Herbicidal oxadiazolidines” (priority 1999, dated 2004)

How the values were obtained:
blackgrass = test: Test B pre/postemergence blackgrass; type: in vivo, Alopecurus myosuroides
Method in brief: (§1)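 Response is a visual 0-to-10 score relative to untreated plants, where 0 means no effect and 10 means complete control, taken twelve to sixteen days after application. Treatments went onto soil at planting and onto foliage of 1- to 4-leaf plants, using a surfactant-containing non-phytotoxic solvent.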

surinam grass = test: Test B pre/postemergence surinam grass; type: in vivo, Brachiaria decumbens
Method in brief: as §1

sugar beet = test: Test B pre/postemergence sugar beet; type: in vivo, Beta vulgaris; details: for Sugarbeets plant response rating: scale of 0 to 10 where 0 is no effect and 10 is complete control
Method in brief: as §1

bamyardgrass = test: Test B flood test barnyardgrass; type: in vivo, Echinochloa crus-galli; details: for Barnyardgrass plant response rating: Rate 62 g/ha
Method in brief: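 Each value is a visual injury score relative to controls, with 10 meaning complete control and 0 no effect. Evaluation took place twelve to sixteen days after the 2-leaf-stage plants were treated and kept in the greenhouse.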

common pursiane = test: Test D common purslane; type: in vivo, Portulaca oleracea; details: Postemergence, 0 to 100 scale
common groundsel = test: Test D common groundsel; type: in vivo, Senecio vulgaris; details: Postemergence, 0 to 100 scale
goosegrass = test: Test D goosegrass; type: in vivo, Eleusine indica; details: Postemergence, 0 to 100 scale
guineagrass = test: Test D guineagrass; type: in vivo, Panicum maximum; details: Postemergence, 0 to 100 scale
large crabgrass = test: Test D large crabgrass; type: in vivo, Digitaria sanguinalis; details: Postemergence, 0 to 100 scale
purple nutsedge = test: Test D purple nutsedge; type: in vivo, Cyperus rotundus; details: Postemergence, 0 to 100 scale
Spanishneedles = test: Test D Spanishneedles; type: in vivo, Bidens bipinnata; details: Postemergence, 0 to 100 scale
Green foxtail = test: Test D green foxtail; type: in vivo; details: Postemergence, 0 to 100 scale, 0 no injury, 100 complete control
[1] = Postemergence, Rate 125 g/ha, scale 0 to 10, 0 is no effect, 10 is complete control
[2] = Preemergence, Rate 62 g/ha, scale 0 to 10 (0 no effect, 10 complete control)
[3] = Preemergence, Rate 250 g/ha, scale of 0 to 10 where 0 is no effect and 10 is complete control
[4] = Preemergence, Rate 500 g/ha, scale of 0 to 10 where 0 is no effect and 10 is complete control
[5] = Rate 62 g/ha, Postemergence, scale of 0 to 10 where 0 is no effect and 10 is complete control
[6] = Rate 250 g/ha, Postemergence, scale of 0 to 10 where 0 is no effect and 10 is complete control
[7] = Rate 500 g/ha, Postemergence, scale 0 to 10, 0 no effect, 10 complete control
[8] = Postemergence (flood test), Rate 125 g/ha, scale 0 to 10, 0 is no effect, 10 is complete control
[9] = Postemergence (flood test species), scale of 0 to 10 where 0 is no effect and 10 is complete control
[10] = Rate 250 g/ha, Postemergence (flood test species), scale of 0 to 10 where 0 is no effect and 10 is complete control
[11] = Rate 500 g/ha, listed under Postemergence (flood test species), scale 0 to 10, 0 no effect, 10 complete control
[12] = Rate 16 g/ha, 0 no injury, 100 complete control
[13] = Rate 32 g/ha, 0 no injury, 100 complete control
[14] = Rate 64 g/ha, 0 no injury, 100 complete control
[15] = Rate 125 g/ha, 0 no injury, 100 complete control

CC(C)N(C(=O)n1oc(=O)n(CC2CCCO2)c1=O)c1ccc(F)cc1 (stereo not drawn) [Compound 343]
90: Plant response rating, Goosegrass (goosegrass; [14]) | Plant response rating, Goosegrass (goosegrass; [15]) | Plant response rating, Large crabgrass (large crabgrass; [14])
0: Plant response rating, Sugarbeets (sugar beet; [1]) | Plant response rating, Sugarbeets (sugar beet; [2]) | Sugarbeets plant response rating (0 to 10 scale) (sugar beet; Preemergence, Rate 125 g/ha) | Sugarbeets plant response rating (sugar beet; Rate 62 g/ha, Postemergence) | Plant response rating, Barnyardgrass (bamyardgrass; [8]) | Barnyardgrass plant response rating (bamyardgrass; [9]) | Plant response rating, Barnyardgrass (bamyardgrass; [10]) | Plant response rating, C. purslane (common pursiane; [12]) | Plant response rating, C. purslane (common pursiane; [13]) | Plant response rating, C. purslane (common pursiane; [14]) | Plant response rating, C. purslane (common pursiane; [15]) | Plant response rating, C. purslane (common pursiane; Rate 250 g/ha) | Plant response rating, Com. groundsel (common groundsel; [12]) | Plant response rating, Guineagrass (guineagrass; [12]) | Plant response rating, Guineagrass (guineagrass; [13]) | Plant response rating, Guineagrass (guineagrass; [14]) | Plant response rating, Large crabgrass (large crabgrass; [12]) | Plant response rating, Purple nutsedge (purple nutsedge; [12]) | Plant response rating, Purple nutsedge (purple nutsedge; [13]) | Purple nutsedge plant response rating (purple nutsedge; [14]) | Purple nutsedge plant response rating (purple nutsedge; [15]) | Plant response rating, Purple nutsedge (purple nutsedge; Rate 250 g/ha) | Plant response rating, Spanishneedles (Spanishneedles; [12]) | Plant response rating, Spanishneedles (Spanishneedles; [13]) | Spanishneedles plant response rating (Spanishneedles; [14]) | Spanishneedles plant response rating (Spanishneedles; [15])
5: Plant response rating, Blackgrass (blackgrass; [6])
2: B. signalgrass plant response rating (surinam grass; [5]) | Plant response rating, Barnyardgrass (bamyardgrass; [11])
20: Plant response rating, Spanishneedles (Spanishneedles; Rate 250 g/ha)
8: Blackgrass plant response rating (0 to 10 scale) (blackgrass; Preemergence, Rate 125 g/ha) | B. signalgrass plant response rating (surinam grass; [4])
80: Plant response rating, Goosegrass (goosegrass; [13]) | Guineagrass plant response rating (guineagrass; [14])
1: Sugarbeets plant response rating (sugar beet; Preemergence, Rate 250 g/ha)
4: Plant response rating, B. signalgrass (surinam grass; [1]) | B. signalgrass plant response rating (0 to 10 scale, 0 is no effect, 10 is complete control) (surinam grass; Preemergence, Rate 125 g/ha) | Plant response rating, B. signalgrass (surinam grass; [6])
7: Plant response rating, Blackgrass (blackgrass; [2]) | Plant response rating, B. signalgrass (surinam grass; [7])
10: Blackgrass plant response rating (blackgrass; [4])
30: Plant response rating, Large crabgrass (large crabgrass; [13])
6: Plant response rating, Blackgrass (blackgrass; [7]) | B. signalgrass plant response rating (surinam grass; [3]) | Sugarbeets plant response rating (sugar beet; Preemergence, Rate 500 g/ha)
50: Plant response rating, Guineagrass (guineagrass; [15])
3: Plant response rating, Blackgrass (blackgrass; [1]) | Blackgrass plant response rating (blackgrass; [5]) | Plant response rating, B. signalgrass (surinam grass; [2]) | Plant response rating, Sugarbeets (sugar beet; [7])
100: Plant response rating, Com. groundsel (common groundsel; [14]) | Plant response rating, Com. groundsel (common groundsel; [15]) | Plant response rating, Com. groundsel (common groundsel; Rate 250 g/ha) | Plant response rating, Goosegrass (goosegrass; Rate 250 g/ha) | Plant response rating, Guineagrass (guineagrass; Rate 250 g/ha) | Plant response rating, Large crabgrass (large crabgrass; [15]) | Plant response rating, Large crabgrass (large crabgrass; Rate 250 g/ha) | Plant response rating, Green foxtail (Green foxtail; Rate 64 g/ha) | Plant response rating, Green foxtail (Green foxtail; Rate 125 g/ha)
40: Plant response rating, Com. groundsel (common groundsel; [13]) | Plant response rating, Goosegrass (goosegrass; [12])
9: Blackgrass plant response rating (blackgrass; [3])

COCC(C)n1c(=O)on(C(=O)N(c2ccc(F)cc2F)C(C)C)c1=O (stereo not drawn) [Compound 357]
4: Plant response rating, B. signalgrass (surinam grass; [6]) | Plant response rating, Barnyardgrass (bamyardgrass; [10])
9: Blackgrass plant response rating (blackgrass; [3])
5: Sugarbeets plant response rating (sugar beet; Preemergence, Rate 250 g/ha)
2: Plant response rating, Sugarbeets (sugar beet; [2]) | Plant response rating, Barnyardgrass (bamyardgrass; [8])
70: Plant response rating, Guineagrass (guineagrass; [15])
60: Guineagrass plant response rating (guineagrass; [14])
20: Plant response rating, Guineagrass (guineagrass; [14]) | Plant response rating, Spanishneedles (Spanishneedles; Rate 250 g/ha)
40: Plant response rating, Com. groundsel (common groundsel; [13])
1: Plant response rating, B. signalgrass (surinam grass; [2])
7: Plant response rating, Blackgrass (blackgrass; [2]) | Plant response rating, Blackgrass (blackgrass; [7]) | B. signalgrass plant response rating (surinam grass; [4]) | Plant response rating, B. signalgrass (surinam grass; [7])
90: Plant response rating, Goosegrass (goosegrass; [12])
50: Plant response rating, Purple nutsedge (purple nutsedge; Rate 250 g/ha)
3: Blackgrass plant response rating (blackgrass; [5]) | B. signalgrass plant response rating (0 to 10 scale, 0 is no effect, 10 is complete control) (surinam grass; Preemergence, Rate 125 g/ha) | Sugarbeets plant response rating (0 to 10 scale) (sugar beet; Preemergence, Rate 125 g/ha)
8: Blackgrass plant response rating (0 to 10 scale) (blackgrass; Preemergence, Rate 125 g/ha)
6: Plant response rating, Blackgrass (blackgrass; [1]) | Plant response rating, Blackgrass (blackgrass; [6]) | B. signalgrass plant response rating (surinam grass; [3]) | Sugarbeets plant response rating (sugar beet; Preemergence, Rate 500 g/ha) | Plant response rating, Barnyardgrass (bamyardgrass; [11])
10: Blackgrass plant response rating (blackgrass; [4]) | Plant response rating, Spanishneedles (Spanishneedles; [12]) | Plant response rating, Spanishneedles (Spanishneedles; [13]) | Spanishneedles plant response rating (Spanishneedles; [14]) | Spanishneedles plant response rating (Spanishneedles; [15])
0: Plant response rating, B. signalgrass (surinam grass; [1]) | B. signalgrass plant response rating (surinam grass; [5]) | Plant response rating, Sugarbeets (sugar beet; [1]) | Sugarbeets plant response rating (sugar beet; Rate 62 g/ha, Postemergence) | Plant response rating, Sugarbeets (sugar beet; [7]) | Barnyardgrass plant response rating (bamyardgrass; [9]) | Plant response rating, C. purslane (common pursiane; [12]) | Plant response rating, C. purslane (common pursiane; [13]) | Plant response rating, C. purslane (common pursiane; [14]) | Plant response rating, C. purslane (common pursiane; [15]) | Plant response rating, C. purslane (common pursiane; Rate 250 g/ha) | Plant response rating, Guineagrass (guineagrass; [12]) | Plant response rating, Guineagrass (guineagrass; [13]) | Plant response rating, Purple nutsedge (purple nutsedge; [12]) | Plant response rating, Purple nutsedge (purple nutsedge; [13]) | Purple nutsedge plant response rating (purple nutsedge; [14]) | Purple nutsedge plant response rating (purple nutsedge; [15])
100: Plant response rating, Com. groundsel (common groundsel; [14]) | Plant response rating, Com. groundsel (common groundsel; [15]) | Plant response rating, Com. groundsel (common groundsel; Rate 250 g/ha) | Plant response rating, Goosegrass (goosegrass; [13]) | Plant response rating, Goosegrass (goosegrass; [14]) | Plant response rating, Goosegrass (goosegrass; [15]) | Plant response rating, Goosegrass (goosegrass; Rate 250 g/ha) | Plant response rating, Guineagrass (guineagrass; Rate 250 g/ha) | Plant response rating, Large crabgrass (large crabgrass; [12]) | Plant response rating, Large crabgrass (large crabgrass; [13]) | Plant response rating, Large crabgrass (large crabgrass; [14]) | Plant response rating, Large crabgrass (large crabgrass; [15]) | Plant response rating, Large crabgrass (large crabgrass; Rate 250 g/ha) | Plant response rating, Green foxtail (Green foxtail; Rate 64 g/ha) | Plant response rating, Green foxtail (Green foxtail; Rate 125 g/ha)
